Laboratory results reported in PubChem BioAssay AID256 (DTP/NCI, 2004).
Where “and” joins values, the source holds several entries; their conditions need not be identical. Equal values may be shown once. Inconclusive results and toxic doses are left out. How the source made its calls: active means survival T/C of 150% or more; inactive means T/C below 125% in these data.

Tested on: CD2F1 mice, L1210 leukemia ip, survival T/C
Assay: NCI In Vivo Anticancer Drug Screen. Data for tumor model L1210 Leukemia (intraperitoneal) in CD2F1 (CDF1) mice
Conditions: higher = longer survival
Method in brief: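 Tumor-bearing mice (transplanted tumor) were split into treated and vehicle control groups, and the measured endpoint of each treated group was divided by that of its vehicle controls.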

[1] = endpoint: mean survival time, dose: 100.0 mg/kg/injection, schedule: Q01DX001 (ip), vehicle: saline with Tween-80
[2] = endpoint: mean survival time, dose: 200.0 mg/kg/injection, schedule: Q01DX001 (ip), vehicle: saline with Tween-80
[3] = endpoint: mean survival time, dose: 400.0 mg/kg/injection, schedule: Q01DX001 (ip), vehicle: saline with Tween-80
[4] = endpoint: mean survival time, dose: 100.0 mg/kg/injection, schedule: Q01DX009 (ip), vehicle: saline with Tween-80
[5] = endpoint: mean survival time, dose: 100.0 mg/kg/injection, schedule: Q04DX003 (ip), vehicle: saline with Tween-80
[6] = endpoint: mean survival time, dose: 200.0 mg/kg/injection, schedule: Q01DX009 (ip), vehicle: saline with Tween-80
[7] = endpoint: mean survival time, dose: 200.0 mg/kg/injection, schedule: Q04DX003 (ip), vehicle: saline with Tween-80
[8] = endpoint: mean survival time, dose: 400.0 mg/kg/injection, schedule: Q04DX003 (ip), vehicle: saline with Tween-80
[9] = endpoint: mean survival time, dose: 50.0 mg/kg/injection, schedule: Q01DX009 (ip), vehicle: Klucel (hydroxypropylcellulose) (HPC)
[10] = endpoint: mean survival time, dose: 100.0 mg/kg/injection, schedule: Q01DX009 (ip), vehicle: Klucel (hydroxypropylcellulose) (HPC)
[11] = endpoint: mean survival time, dose: 25.0 mg/kg/injection, schedule: Q01DX009 (ip), vehicle: saline with Tween-80
[12] = endpoint: mean survival time, dose: 75.0 mg/kg/injection, schedule: Q01DX001 (ip), vehicle: saline
[13] = endpoint: mean survival time, dose: 100.0 mg/kg/injection, schedule: Q01DX001 (ip), vehicle: saline
[14] = endpoint: mean survival time, dose: 200.0 mg/kg/injection, schedule: Q01DX001 (ip), vehicle: saline
[15] = endpoint: mean survival time, dose: 400.0 mg/kg/injection, schedule: Q01DX001 (ip), vehicle: saline
[16] = endpoint: mean survival time, dose: 400.0 mg/kg/injection, schedule: Q01DX009 (ip), vehicle: saline with Tween-80

Measured: T/C

CC1C(=O)CC(C)(C)C=CC1C1C=CC(C)(C)CC(=O)C1C (configuration not stated)
inactive: endpoint: mean survival time, dose: 75.0 mg/kg/injection, schedule: Q01DX001 (ip), vehicle: other 97 % of control | endpoint: mean survival time, dose: 150.0 mg/kg/injection, schedule: Q01DX001 (ip), vehicle: other 97 % of control | endpoint: mean survival time, dose: 300.0 mg/kg/injection, schedule: Q01DX001 (ip), vehicle: other 96 % of control

CSc1nc(NC2OCC(O)C(O)C2O)cc(=O)n1C (configuration not stated)
inactive: endpoint: median survival time, dose: 12.5 mg/kg/injection, schedule: Q01DX005 (ip), vehicle: saline 98 % of control | endpoint: median survival time, dose: 25.0 mg/kg/injection, schedule: Q01DX005 (ip), vehicle: saline 102 % of control | endpoint: median survival time, dose: 50.0 mg/kg/injection, schedule: Q01DX005 (ip), vehicle: saline 102 % of control | endpoint: median survival time, dose: 100.0 mg/kg/injection, schedule: Q01DX005 (ip), vehicle: saline 105 % of control | endpoint: median survival time, dose: 200.0 mg/kg/injection, schedule: Q01DX005 (ip), vehicle: saline 100 % of control

CCOC(=O)C1=C(C)NC(C)=C(C(=O)OCC)C1c1ccccc1Cl
inactive: endpoint: mean survival time, dose: 12.5 mg/kg/injection, schedule: Q01DX009 (ip), vehicle: acetone 102 % of control | endpoint: mean survival time, dose: 25.0 mg/kg/injection, schedule: Q01DX009 (ip), vehicle: acetone 100 % of control | endpoint: mean survival time, dose: 50.0 mg/kg/injection, schedule: Q01DX009 (ip), vehicle: acetone 104 % of control

CC(=O)c1cccc(C(=O)O)c1
inactive: [1] 103 % of control | [2] 101 % of control | [3] 103 % of control

Cc1ccc(NC(=O)CCl)cc1C
inactive: [4] 100 % of control | [5] 96 % of control | [6] 97 % of control | [7] 95 % of control | [8] 93 % of control

CC([N+](=O)[O-])S(C)(=O)=O (configuration not stated)
inactive: [1] 97 % of control | [2] 101 % of control | [3] 101 % of control

COc1ccc2nc3c4ccccc4scc-3c2c1
inactive: endpoint: mean survival time, dose: 25.0 mg/kg/injection, schedule: Q01DX009 (ip), vehicle: Klucel (hydroxypropylcellulose) (HPC) 109 % of control | [9] 97 % of control | [10] 110 % of control

CCN(CC)C(=O)N1CC2CCC(C1)N2C
inactive: endpoint: mean survival time, dose: 100.0 mg/kg/injection, schedule: Q04DX003 (ip), vehicle: saline 100 % of control

O=C(C=C(C(F)(F)F)C(F)(F)F)c1ccccc1Cl
inactive: endpoint: mean survival time, dose: 12.5 mg/kg/injection, schedule: Q01DX009 (ip), vehicle: saline with Tween-80 103 % of control | [11] 102 % of control

CN(C)/C=C/C#N
inactive: [12] 102 % of control

CNc1ccc(C(=O)O)cc1C(F)(F)F
inactive: [13] 102 % of control | [14] 101 % of control | [15] 102 % of control

CC(=O)C(=O)C(C)=O
inactive: [5] 94 % of control | [7] 91 % of control | [8] 105 % of control

CCC(C)C(=O)c1ccccc1 (configuration not stated)
inactive: endpoint: mean survival time, dose: 50.0 mg/kg/injection, schedule: Q01DX001 (ip), vehicle: saline with Tween-80 100 % of control | [1] 95 % of control | [2] 100 % of control

CO[C@@]12[C@@H]3N[C@@H]3CN1C1=C(C(=O)C(Nc3ccc(O)cc3C)=C(C)C1=O)[C@@H]2COC(N)=O
inactive: endpoint: mean survival time, dose: 1.5 mg/kg/injection, schedule: Q01DX001 (ip), vehicle: water 119 % of control and 111 % of control | endpoint: mean survival time, dose: 3.0 mg/kg/injection, schedule: Q01DX001 (ip), vehicle: water 122 % of control and 111 % of control | endpoint: mean survival time, dose: 6.0 mg/kg/injection, schedule: Q01DX001 (ip), vehicle: water 120 % of control and 122 % of control | endpoint: mean survival time, dose: 12.0 mg/kg/injection, schedule: Q01DX001 (ip), vehicle: water 120 % of control

O=C(NCCCCCCNC(=O)N1CC1)N1CC1
inactive: endpoint: mean survival time, dose: 0.4 mg/kg/injection, schedule: Q01DX001 (ip), vehicle: saline 109 % of control | endpoint: mean survival time, dose: 0.8 mg/kg/injection, schedule: Q01DX001 (ip), vehicle: saline 118 % of control | endpoint: mean survival time, dose: 1.7 mg/kg/injection, schedule: Q01DX001 (ip), vehicle: saline 114 % of control

CC(=O)OC1OC(=O)C(C)(C(C)=O)C1C (configuration not stated)
inactive: endpoint: median survival time, dose: 2.5 mg/kg/injection, schedule: Q01DX009 (ip), vehicle: distilled water + alcohol 103 % of control | endpoint: median survival time, dose: 5.0 mg/kg/injection, schedule: Q01DX009 (ip), vehicle: distilled water + alcohol 101 % of control | endpoint: median survival time, dose: 10.0 mg/kg/injection, schedule: Q01DX009 (ip), vehicle: distilled water + alcohol 104 % of control | endpoint: median survival time, dose: 20.0 mg/kg/injection, schedule: Q01DX009 (ip), vehicle: distilled water + alcohol 103 % of control

CSC(=N/N=C/c1ccccc1O)SC
inactive: [5] 98 % of control | [7] 96 % of control | [8] 96 % of control

CCOc1ccc(N=[N+]([O-])c2ccc(OCC)cc2)cc1
inactive: [4] 90 % of control | [5] 96 % of control | [6] 97 % of control | [7] 98 % of control | [16] 96 % of control | [8] 101 % of control

O=C(O)c1cc2c(Cl)cccc2[nH]1
inactive: [11] 109 % of control | endpoint: mean survival time, dose: 50.0 mg/kg/injection, schedule: Q01DX009 (ip), vehicle: saline with Tween-80 98 % of control | [4] 94 % of control | [5] 106 % of control

O=S(CCCCO)c1ccccc1 (configuration not stated)
inactive: endpoint: mean survival time, dose: 50.0 mg/kg/injection, schedule: Q04DX002 (ip), vehicle: saline 101 % of control | endpoint: mean survival time, dose: 100.0 mg/kg/injection, schedule: Q04DX002 (ip), vehicle: saline 104 % of control | endpoint: mean survival time, dose: 200.0 mg/kg/injection, schedule: Q04DX002 (ip), vehicle: saline 96 % of control

CN(C)C1c2ccccc2-c2ccc([N+](=O)[O-])cc21 (configuration not stated)
inactive: endpoint: mean survival time, dose: 50.0 mg/kg/injection, schedule: Q01DX001 (ip), vehicle: carboxymethylcellulose (CMC) 107 % of control | endpoint: mean survival time, dose: 100.0 mg/kg/injection, schedule: Q01DX001 (ip), vehicle: carboxymethylcellulose (CMC) 101 % of control | endpoint: mean survival time, dose: 200.0 mg/kg/injection, schedule: Q01DX001 (ip), vehicle: carboxymethylcellulose (CMC) 101 % of control | endpoint: mean survival time, dose: 400.0 mg/kg/injection, schedule: Q01DX001 (ip), vehicle: carboxymethylcellulose (CMC) 101 % of control

CC(=O)OC1CCC2(C)C(=CC=C3C2=CCC2(C)C3CCC2C(C)/C=C\C(C)C(C)C)C1 (configuration not stated)
inactive: [9] 96 % of control | [10] 93 % of control | endpoint: mean survival time, dose: 200.0 mg/kg/injection, schedule: Q01DX009 (ip), vehicle: Klucel (hydroxypropylcellulose) (HPC) 101 % of control

Nc1nc2c(c(=O)[nH]1)N(C(=S)Nc1ccccc1)C(CNc1ccc(C(=O)NC(CCC(=O)O)C(=O)O)cc1)CN2 (configuration not stated)
inactive: [13] 101 % of control | [14] 101 % of control | [15] 104 % of control

O/N=C(/CC(O)(c1ccccc1)c1ccccc1)c1ccccc1
inactive: [12] 98 % of control | endpoint: mean survival time, dose: 150.0 mg/kg/injection, schedule: Q01DX001 (ip), vehicle: saline 103 % of control | endpoint: mean survival time, dose: 300.0 mg/kg/injection, schedule: Q01DX001 (ip), vehicle: saline 95 % of control

O=C1C2C3C=CC(O3)C2C(=O)N1Cc1ccncc1 (configuration not stated)
inactive: [13] 108 % of control | [14] 100 % of control | [15] 101 % of control

CC(=O)OC1CCC2(C)C(CCC3C2CCC2(C)C3CC3OC4(CCC(C)CO4)C(C)C32)C1 (configuration not stated)
inactive: [5] 95 % of control and 92 % of control | [7] 89 % of control and 90 % of control and 95 % of control | [8] 87 % of control and 90 % of control

CCCCNC(C)(C)C(SSC(c1cccs1)C(C)(C)NCCCC)c1cccs1 (configuration not stated)
inactive: endpoint: mean survival time, dose: 25.0 mg/kg/injection, schedule: Q04DX003 (ip), vehicle: saline with Tween-80 97 % of control | endpoint: mean survival time, dose: 50.0 mg/kg/injection, schedule: Q04DX003 (ip), vehicle: saline with Tween-80 101 % of control | [5] 98 % of control

CC(=O)OC1CCC2(C)C(=C(C)CC3C2CCC2(C)C(C(C)=O)CCC32)C1 (configuration not stated)
inactive: [4] 98 % of control | [6] 95 % of control | [16] 97 % of control

CCOC(=O)C(=NCc1ccc2c(c1)OCO2)NO
inactive: [5] 96 % of control | [7] 100 % of control | [8] 101 % of control

Oc1ccc(C(c2ccccc2)(c2ccccc2)c2ccccc2)cc1
inactive: [4] 94 % of control | [6] 89 % of control | [16] 91 % of control

Cc1c[n+]([O-])ccc1Br
inactive: endpoint: mean survival time, dose: 25.0 mg/kg/injection, schedule: Q01DX009 (ip), vehicle: water 94 % of control | endpoint: mean survival time, dose: 50.0 mg/kg/injection, schedule: Q01DX009 (ip), vehicle: water 100 % of control | endpoint: mean survival time, dose: 100.0 mg/kg/injection, schedule: Q01DX009 (ip), vehicle: water 88 % of control

O=C(CC(=O)C(F)(F)F)c1ccco1.O=C(CC(=O)C(F)(F)F)c1ccco1.O=C(CC(=O)C(F)(F)F)c1ccco1.[Eu]
inactive: [5] 94 % of control | [7] 94 % of control | [8] 89 % of control
